Laboratory results published in US20210179680A1, “POLYPEPTIDE, DERIVATIVES THEREOF, AND APPLICATION THEREOF IN PREPARATION OF DRUGS HAVING RESISTANCE TO PULMONARY FIBROSIS” (priority 2016, published 2021).
Bridge positions count the residues as written; N and C are the ends. Square brackets hold non-standard residues; d marks the D form. Peptide text beside a SMILES is read from it. S5 = C=CCCC[C@](C)(N)C(=O)O

Legend:
[1] = α-helix ratio of polypeptides by circular dichroism; type: physicochemical; conditions: PBS solution, 1 mg/mL
Method: The α-helix ratio of the polypeptide was measured by a circular dichromatograph (purchased from Jasco, Japan). The polypeptides MR2, S1, S2, S3, S4, S5, S6, S7, S8, S9, S10 and S11 prepared in Example 1 were dissolved in PBS solution, and the working concentration of the circular dichromatograph was adjusted to 1 mg/mL. […] Among them, the α-helix ratio refers to the percentage of the number of peptide segments of the polypeptide that maintains the alpha helix of the secondary structure in the peptide segments of the total polypeptide.

[2] = molecular target: T1, TRB3/MDM2 protein interaction (Homo sapiens, UniProt Q96RU7); test: Co-immunoprecipitation: inhibition of binding of MDM2 to TRB3 in BEAS-2B cells; type: cell-based; conditions: BEAS-2B cells with TRB3 expression plasmid, 1 mg/mL polypeptide, 12 hours, co-IP with MDM2 antibody
T1 construct: host or cells: BEAS-2B
T1 sequence (Q96RU7 1-358): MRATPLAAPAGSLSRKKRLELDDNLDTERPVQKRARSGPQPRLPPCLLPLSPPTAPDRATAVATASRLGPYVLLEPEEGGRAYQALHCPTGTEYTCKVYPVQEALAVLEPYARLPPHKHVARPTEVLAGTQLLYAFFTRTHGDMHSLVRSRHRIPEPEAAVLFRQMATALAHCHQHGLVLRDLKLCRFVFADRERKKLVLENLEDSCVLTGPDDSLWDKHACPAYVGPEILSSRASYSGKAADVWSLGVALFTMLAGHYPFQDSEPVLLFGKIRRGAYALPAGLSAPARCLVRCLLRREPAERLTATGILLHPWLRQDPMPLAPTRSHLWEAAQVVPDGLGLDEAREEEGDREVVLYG
Method: 1. Human lung epithelial BEAS-2B cells (purchased from Institute of Basic Medical Sciences, Chinese Academy of Medical Sciences) were seeded in a 90 mm^2 culture dish. After the cells were adhered to the wall of culture dish, the TRB3 expression plasmid were transferred to the cells according to the method described in Example 5. After 24 hours, 1 mg/mL of the polypeptides MR2, S1, S2, S3, S4, S5, S6, S7, S8, S9, S10 or S11 prepared in Example 1 were added respectively, and the cells were incubated for 12 hours in a 37° C. incubator and then harvested.
2. Co-immunoprecipitation with MDM2 antibody was performed according to the method described in Example 3, followed by detection using TRB3 antibody.

[3] = system: mice with bleomycin-induced pulmonary fibrosis; test: Lung weight index in mice with pulmonary fibrosis; type: in vivo, C57BL/6 mice; conditions: Table 3 groups, 2 mg/kg i.p.; after 28 days; lung weight (mg) divided by body weight (g)
Method: (§1) Male C57BL/6 mice were fasted overnight, then anesthetized with 45 mg/kg sodium pentobarbital by injection intraperitoneally (i.p.), and intratracheally injected with bleomycin at a dose of 3 U/kg. The specific operation steps are as follows: cut the neck skin of the mouse with as little trauma as possible, expose the trachea with the assistance of elbow ophthalmic forceps, puncture the trachea and inject about 50 μL of bleomycin into the trachea with a microsyringe, rotate the mouse quickly and stand it upright for 5 minutes in order to make bleomycin evenly enter the left and right lobe, thereby constructing an animal model. The whole operation was performed at a surgical table at about […]. Mice in the sham operation group were intratracheally injected with an equal amount of physiological saline for injection.
Pulmonary fibrosis model was prepared according to the method described in Example 2, and administered in groups according to Table 3. After 28 days, the lungs of the mice were finely stripped and weighed, and a lung weight index was obtained from dividing the lung weight (mg) by the body weight (g) of the mice. […] In FIG. 7, “##” represents that P value is less than 0.01 when the lung weight index of administration group was compared with that of the sham operation group; “*” represents that P value is less than 0.05 when the lung weight index of administration group was compared with that of the bleomycin group; “**” represents that P value is less than 0.01 when the lung weight index of administration group was compared with that of bleomycin group.
Pulmonary fibrosis models were made according to the method described in Example 2 and administered in groups according to Table 9. After 28 days, the lungs of the mice were finely stripped and weighed, and the lung weight (mg) was divided by the body weight (g) of the mice to obtain a lung weight index. […] In FIG. 13, “##” represents that P value is less than 0.01 when the lung weight index of the administration groups were compared with that of the sham operation group; “*” represents that P value is less than 0.05 and “**” represents that P value is less than 0.01 when the lung weight index of the administration groups were compared with bleomycin group.

[4] = system: mice with bleomycin-induced pulmonary fibrosis; test: Pulmonary function (Flexivent) in mice with pulmonary fibrosis; type: in vivo, C57BL/6 mice; conditions: Table 3 groups, 2 mg/kg i.p.; for Dynamic compliance (mL/cmH2O) / Dynamic elasticity (cmH2O./mL) / Dynamic resistance (cmH2O · s/Ml) / Inspiratory capacity: 28th day after model construction; for pulmonary function of mice with pulmonary fibrosis (in words): FIG. 11
Method: as §1
(§2) Pulmonary function is a gold indicator for clinical detection of pulmonary fibrosis in patients. The decline of lung function is generally accompanied by an aggravation of fibrosis, while the improvement of lung function generally represents the recovery of lung tissue structure. Pulmonary fibrosis models were prepared according to the method described in Example 2 and administered in groups according to Table 3. On the 28th day after the construction of the animal model, the mice were anesthetized with sodium pentobarbital (45 mg/kg, i.p.). Lung function was tested by the Flexivent Small-animal respiratory mechanics and the testing methods were TLC and SnapShots (Testing method refers to Lv X, Wang X, Li K, et al. Rupatadine Protects against Pulmonary Fibrosis by Attenuating PAF-Mediated Senescence in Rodents [J]. PloS one, 2013, 8(7): e68631).
as §2, with “lung function also generally represents” for “lung function generally represents”, “to Table 9. 28 days later, the mice” for “to Table 3. On the 28th day after the construction of the animal model, the mice”, “Senescence in Rodents[J]. PloS one,” for “Senescence in Rodents [J]. PloS one,”

SMILES	α-helicity (%) [1]	α-helix ratio compared with polypeptide MR2 (in words) [1]	interaction of TRB3 and MDM2 protein (FIG. 5, in words) [2]	Lung weight index [3]	Dynamic compliance (mL/cmH2O) [4]	Dynamic elasticity (cmH2O./mL) [4]	Dynamic resistance (cmH2O · s/Ml) [4]	Inspiratory capacity [4]	pulmonary function of mice with pulmonary fibrosis (in words) [4]
CC(C)C[C@H](NC(=O)[C@H](CCCCN)NC(=O)[C@H](CCCCN)NC(=O)[C@H](C)NC(=O)[C@H](CS)NC(=O)[C@]1(C)CCCC=CCCC[C@](C)(NC(=O)[C@H](CC(C)C)NC(=O)[C@@H](N)Cc2c[nH]cn2)C(=O)N[C@@H](C)C(=O)N[C@@H](CS)C(=O)N[C@@H](Cc2ccccc2)C(=O)N1)C(=O)N[C@@H](CCCCN)C(=O)N[C@@H](CCCCN)C(=O)N[C@@H](CCCNC(=N)N)C(=O)O [S3, His-Leu-S5-Ala-Cys-Phe-S5-Cys-Ala-Lys-Lys-Leu-Lys-Lys-Arg] (H-HL[S5]ACF[S5]CAKKLKKR-OH; staple 3-7; N-terminus and C-terminus assumed)	42.1%	significantly higher than that of polypeptide MR2	interrupted	8.8	0.255 mL/cmH2O	47 cmH2O./mL	1.143 cmH2O · s/Ml	0.646 mL	improved
CSCC[C@H](NC(=O)[C@H](CC(C)C)NC(=O)[C@@H](N)Cc1c[nH]cn1)C(=O)N[C@@H](C)C(=O)N[C@@H](CS)C(=O)N[C@@H](Cc1ccccc1)C(=O)N[C@H](C(=O)N[C@@H](CS)C(=O)N[C@@H](C)C(=O)N[C@@H](CCCCN)C(=O)N[C@@H](CCCCN)C(=O)N[C@@H](CC(C)C)C(=O)N[C@@H](CCCCN)C(=O)N[C@@H](CCCCN)C(=O)N[C@@H](CCCNC(=N)N)C(=O)O)[C@@H](C)O [MR2] (H-HLMACFTCAKKLKKR-OH; N-terminus and C-terminus assumed)	0.0%		interrupted	11.4625	0.22 mL/cmH2O	68.83 cmH2O./mL	1.775 cmH2O · s/Ml	0.456 mL	improved
CSCC[C@H](NC(=O)[C@H](CC(C)C)NC(=O)[C@@H](N)Cc1c[nH]cn1)C(=O)N[C@@H](C)C(=O)N[C@@H](CS)C(=O)N[C@@H](Cc1ccccc1)C(=O)N[C@H](C(=O)N[C@@H](CS)C(=O)N[C@@H](C)C(=O)N[C@@H](CCCCN)C(=O)N[C@@]1(C)CCCC=CCCC[C@@](C)(C(=O)O)NC(=O)[C@H](CCCCN)NC(=O)[C@H](CCCCN)NC(=O)[C@H](CC(C)C)NC1=O)[C@@H](C)O [S11, His-Leu-Met-Ala-Cys-Phe-Thr-Cys-Ala-Lys-S5-Leu-Lys-Lys-S5] (H-HLMACFTCAK[S5]LKK[S5]-OH; staple 11-15; N-terminus and C-terminus assumed)	37.8%	significantly higher than that of polypeptide MR2	interrupted	9.2875	0.235 mL/cmH2O	53 cmH2O./mL	1.267 cmH2O · s/Ml	0.658 mL	improved
CSCC[C@H](NC(=O)[C@H](CC(C)C)NC(=O)[C@@H](N)Cc1c[nH]cn1)C(=O)N[C@@H](C)C(=O)N[C@@H](CS)C(=O)N[C@@]1(C)CCCC=CCCC[C@@](C)(C(=O)N[C@@H](CCCCN)C(=O)N[C@@H](CC(C)C)C(=O)N[C@@H](CCCCN)C(=O)N[C@@H](CCCCN)C(=O)N[C@@H](CCCNC(=N)N)C(=O)O)NC(=O)[C@H](C)NC(=O)[C@H](CS)NC(=O)[C@H]([C@@H](C)O)NC1=O [S6, His-Leu-Met-Ala-Cys-S5-Thr-Cys-Ala-S5-Lys-Leu-Lys-Lys-Arg] (H-HLMAC[S5]TCA[S5]KLKKR-OH; staple 6-10; N-terminus and C-terminus assumed)	36.4%	significantly higher than that of polypeptide MR2	interrupted	9.725	0.2683 mL/cmH2O	52.17 cmH2O./mL	1.067 cmH2O · s/Ml	0.558 mL	improved
CSCC[C@H](NC(=O)[C@H](CC(C)C)NC(=O)[C@@H](N)Cc1c[nH]cn1)C(=O)N[C@@H](C)C(=O)N[C@@H](CS)C(=O)N[C@@H](Cc1ccccc1)C(=O)N[C@@]1(C)CCCC=CCCC[C@@](C)(C(=O)N[C@@H](CC(C)C)C(=O)N[C@@H](CCCCN)C(=O)N[C@@H](CCCCN)C(=O)N[C@@H](CCCNC(=N)N)C(=O)O)NC(=O)[C@H](CCCCN)NC(=O)[C@H](C)NC(=O)[C@H](CS)NC1=O [S7, His-Leu-Met-Ala-Cys-Phe-S5-Cys-Ala-Lys-S5-Leu-Lys-Lys-Arg] (H-HLMACF[S5]CAK[S5]LKKR-OH; staple 7-11; N-terminus and C-terminus assumed)	51.0%	significantly higher than that of polypeptide MR2	interrupted	7.675	0.29 mL/cmH2O	51 cmH2O./mL	0.8833 cmH2O · s/Ml	0.684 mL	improved
